Values after ≈ are worked out from the molar mass of the structure shown. Where a SMILES comes first, the peptide text is derived from it. Bridges are numbered along the chain shown (N, C = ends). Roman numbers before positions name the chains, in order. [ ]: non-standard residue; d: D form. Pen = CC(C)(S)[C@H](N)C(=O)O; Hiv = CC(C)[C@H](O)C(=O)O; dDab = NCC[C@@H](N)C(=O)O; hSer = N[C@@H](CCO)C(=O)O; Dab = NCC[C@H](N)C(=O)O; Abu = CC[C@H](N)C(=O)O; Dap = NC[C@H](N)C(=O)O
What was measured:
[1] = test system: Acinetobacter baumannii 872842; format: cell-based; conditions: 872842
Procedure, shortened: (§1)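 Broth microdilution per CLSI; MH-II (cation-adjusted) + 0.002% P-80 final; ~10^6 CFU/mL inoculum; 2-fold peptide series; 35° C, 18-20 h; MIC = no visible growth, μg/mL.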

[2] = test system: Acinetobacter baumannii DSM 30008; format: cell-based; conditions: DSM 30008
Procedure, shortened: as §1

[3] = test system: Enterobacter cloacae 848840; format: cell-based; conditions: 848840
Procedure, shortened: as §1

[4] = test system: Escherichia coli 926415; format: cell-based; conditions: 926415
Procedure, shortened: as §1

[5] = test system: Escherichia coli ATCC 25922; format: cell-based; conditions: ATCC 25922
Procedure, shortened: as §1

[6] = test system: Klebsiella pneumoniae 968733; format: cell-based; conditions: 968733
Procedure, shortened: as §1

[7] = test system: Klebsiella pneumoniae SSI #3010; format: cell-based; conditions: SSI #3010
Procedure, shortened: as §1

[8] = test system: Pseudomonas aeruginosa ATCC 27853; format: cell-based; conditions: ATCC 27853
Procedure, shortened: as §1

[9] = test system: human red blood cells (hRBC); experiment: Hemolysis; format: cell-based; conditions: red cells of human, 1 h, 200
Procedure, shortened: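 Washed fresh human RBC (20% v/v) incubated with peptide at 200 μg/mL for 1 h at 37° C with shaking. Supernatant OD540 measured after dilution, blank corrected; percent hemolysis = OD540 peptide / OD540 of 2% Triton X-100 lysis × 100, PBS with 10% water as 0%.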

[10] = test system: male ICR mice; experiment: Tolerability in a mouse model (Maximum Tolerated Dose assay); format: in vivo; conditions: 2 × 40 mg/kg s.c. at a 12-hr interval, groups of 3
Experimental: The tolerability of the peptides was tested in a mouse model at Pharmacology Discovery Services Taiwan Ltd, Taipei, Taiwan. The peptides were administered subcutaneously (s.c.) at 30 mg/kg or 40 mg/kg, respectively; twice at a 12-hr interval, for assessment of possible adverse effects in the Maximum Tolerated Dose (MTD) assay in male ICR (Institute of Cancer Research) mice. The peptides were dissolved in 0.9% NaCl at the concentrations either of 6 or 8 mg/mL, respectively, based on the free base molecular weight. The pH values of dosing solutions were adjusted to 6.5-7.6 before s.c. administration. A dosing volume at 5 mL/kg and a concentration of 6 or 8 mg/mL, respectively, was applied. The fresh prepared stock solution were stored at 4° C. during the study. Male ICR mice weighing 23±3 g were provided by BioLasco Taiwan (under Charles River Laboratories Licensee). Animals were acclimated for 3 days prior to use and were confirmed to be in good health. The peptides were administered s.c. at 30 mg/kg or 40 mg/kg, respectively, twice at a 12-hr interval, to groups of 3 ICR male mice and observed for the presence of acute toxic symptoms (mortality, convulsions, tremors, muscle relaxation, sedation, etc.) and autonomic effects (diarrhea, salivation, lacrimation, vasodilation, piloerection, etc.) during the first 30 min. The peptides were administered again at a 12-hr (two total doses) interval, following the first dose. The animals were then observed again for the presence of acute toxic symptoms and autonomic effects during the first 30 min.

Compound | MIC [1] | Acinetobacter baumannii DSM 30008 MIC [2] | MIC [3] | MIC [4] | Escherichia coli ATCC 25922 MIC [5] | MIC [6] | Klebsiella pneumoniae SSI #3010 MIC [7] | Pseudomonas aeruginosa ATCC 27853 MIC [8] | Hemolysis at 200 μg/mL [9] | Mortality and dose [10]
CC(=O)N[C@H](C(=O)N[C@H]1CSSC[C@@H](C(=O)N[C@@H](CO)C(=O)N[C@H](CO)C(N)=O)NC(=O)[C@H](C(C)C)NC(=O)[C@H](CO)NC(=O)[C@H](Cc2c[nH]c3ccccc23)NC(=O)[C@H](CO)NC(=O)[C@@H](CCN)NC(=O)[C@H](CCC(=O)N[C@@H](CCN)C(=O)N[C@H](C(=O)N[C@@H](CN)C(=O)N[C@H]2CCNC(=O)[C@H]([C@@H](C)O)NC(=O)[C@H](CCN)NC(=O)[C@H](CCN)NC(=O)[C@H](CC(C)C)NC(=O)[C@@H](CC(C)C)NC(=O)[C@H](CCN)NC2=O)[C@@H](C)O)NC(=O)[C@H](CCN)NC(=O)[C@H](Cc2ccc(O)cc2)NC1=O)C(C)C [Ex. 375] (I: Ac-VCY[Dab]E[dDab]SWSVCS[dS]-NH2 / II: [Dab]T[Dap][Dab][Dab][dL]L[Dab][Dab]T; disulfide I:2-I:11; amide I:5-II:N; lactam II:4-II:C) | 0.0625 µg/mL (≈ 0.0251 µM) | 0.03125 µg/mL | 0.25 µg/mL (≈ 0.101 µM) | 0.125 µg/mL (≈ 0.0503 µM) | 0.03125 µg/mL | 0.125 µg/mL (≈ 0.0503 µM) | 0.0625 µg/mL | 0.125 µg/mL | <1% | 0/3 died at 2 × 40 mg/kg
CC(=O)N[C@H](C(=O)N[C@H]1CSSC[C@@H](C(=O)N[C@@H](CO)C(N)=O)NC(=O)[C@H](C(C)C)NC(=O)[C@H](CO)NC(=O)[C@H](Cc2c[nH]c3ccccc23)NC(=O)[C@H](CCC(=O)N[C@@H](CCN)C(=O)N[C@H](C(=O)N[C@@H](CN)C(=O)N[C@H]2CCNC(=O)[C@H]([C@@H](C)O)NC(=O)[C@H](CCN)NC(=O)[C@H](CCN)NC(=O)[C@H](CC(C)C)NC(=O)[C@@H](CC(C)C)NC(=O)[C@H](CCN)NC2=O)[C@@H](C)O)NC(=O)[C@@H](CCN)NC(=O)[C@H](Cc2c[nH]cn2)NC(=O)[C@H](CO)NC(=O)[C@H](Cc2ccc(O)cc2)NC1=O)C(C)C [Ex. 358] (I: Ac-VCYSH[dDab]EWSVCS-NH2 / II: [Dab]T[Dap][Dab][Dab][dL]L[Dab][Dab]T; disulfide I:2-I:11; amide I:7-II:N; lactam II:4-II:C) | 0.0625 µg/mL (≈ 0.0257 µM) | 0.03125 µg/mL | 0.125 µg/mL (≈ 0.0513 µM) | 0.25 µg/mL (≈ 0.103 µM) | 0.03125 µg/mL | 0.25 µg/mL (≈ 0.103 µM) | 0.125 µg/mL | 0.125 µg/mL | 1% | 0/3 died at 2 × 40 mg/kg
CC(=O)N[C@H](C(=O)N[C@H]1CSSC[C@@H](C(=O)N[C@@H](CO)C(N)=O)NC(=O)[C@H](C(C)C)NC(=O)[C@H](CO)NC(=O)[C@H](Cc2c[nH]c3ccccc23)NC(=O)[C@H](CCO)NC(=O)[C@@H](CCN)NC(=O)[C@H](CCC(=O)N[C@@H](CCN)C(=O)N[C@H](C(=O)N[C@@H](CN)C(=O)N[C@H]2CCNC(=O)[C@H]([C@@H](C)O)NC(=O)[C@H](CCN)NC(=O)[C@H](CCN)NC(=O)[C@H]([C@@H](C)O)NC(=O)[C@@H](CC(C)C)NC(=O)[C@H](CCN)NC2=O)[C@@H](C)O)NC(=O)[C@H](CCN)NC(=O)[C@H](Cc2ccc(O)cc2)NC1=O)C(C)C [Ex. 343] (I: Ac-VCY[Dab]E[dDab][hSer]WSVCS-NH2 / II: [Dab]T[Dap][Dab][Dab][dL]T[Dab][Dab]T; disulfide I:2-I:11; amide I:5-II:N; lactam II:4-II:C) | 0.25 µg/mL (≈ 0.104 µM) | 0.0625 µg/mL | 0.125 µg/mL (≈ 0.0521 µM) | 0.25 µg/mL (≈ 0.104 µM) | 0.03125 µg/mL | 0.5 µg/mL (≈ 0.208 µM) | 0.0625 µg/mL | 0.125 µg/mL | <1% | 0/3 died at 2 × 40 mg/kg
CC(C)C[C@@H]1NC(=O)[C@@H](CC(C)C)NC(=O)[C@H](CCN)NC(=O)[C@@H](NC(=O)[C@H](CN)NC(=O)[C@@H](NC(=O)[C@H](CCN)NC(=O)CC[C@@H]2NC(=O)[C@H](CCN)NC(=O)[C@H](Cc3ccc(O)cc3)NC(=O)[C@@H](NC(=O)[C@@H](O)C(C)C)C(C)(C)SSC[C@@H](C(=O)N[C@@H](CO)C(N)=O)NC(=O)[C@H](C(C)C)NC(=O)[C@H](CO)NC(=O)[C@H](Cc3c[nH]c4ccccc34)NC(=O)[C@H](CO)NC(=O)[C@@H](CCN)NC2=O)[C@@H](C)O)CCNC(=O)[C@H]([C@@H](C)O)NC(=O)[C@H](CCN)NC(=O)[C@H](CCN)NC1=O [Ex. 340] (I: H-[Hiv][Pen]Y[Dab]E[dDab]SWSVCS-NH2 / II: [Dab]T[Dap][Dab][Dab][dL]L[Dab][Dab]T; disulfide I:2-I:11; amide I:5-II:N; lactam II:4-II:C) | 0.0625 µg/mL (≈ 0.0262 µM) | 0.0625 µg/mL | 0.125 µg/mL (≈ 0.0524 µM) | 0.125 µg/mL (≈ 0.0524 µM) | 0.03125 µg/mL | 0.25 µg/mL (≈ 0.105 µM) | 0.0625 µg/mL | 0.25 µg/mL | <1% | 0/3 died at 2 × 40 mg/kg
CC[C@@H]1NC(=O)[C@H](CCN)NC(=O)[C@H](Cc2ccc(O)cc2)NC(=O)[C@@H](NC(=O)[C@@H](NC(C)=O)C(C)C)CSSC[C@@H](C(=O)N[C@@H](CO)C(N)=O)NC(=O)[C@H](C(C)C)NC(=O)[C@H](CO)NC(=O)[C@H](Cc2c[nH]c3ccccc23)NC(=O)[C@H](CCC(=O)N[C@@H](CCN)C(=O)N[C@H](C(=O)N[C@@H](CN)C(=O)N[C@H]2CCNC(=O)[C@H]([C@@H](C)O)NC(=O)[C@H](CCN)NC(=O)[C@H](CCN)NC(=O)[C@H](CC(C)C)NC(=O)[C@@H](CC(C)C)NC(=O)[C@H](CCN)NC2=O)[C@@H](C)O)NC(=O)[C@@H](CCN)NC1=O [Ex. 363] (I: Ac-VCY[Dab][Abu][dDab]EWSVCS-NH2 / II: [Dab]T[Dap][Dab][Dab][dL]L[Dab][Dab]T; disulfide I:2-I:11; amide I:7-II:N; lactam II:4-II:C) | 0.0625 µg/mL (≈ 0.0261 µM) | 0.0625 µg/mL | 0.0625 µg/mL (≈ 0.0261 µM) | 0.125 µg/mL (≈ 0.0522 µM) | 0.0625 µg/mL | 0.125 µg/mL (≈ 0.0522 µM) | 0.0625 µg/mL | 0.125 µg/mL | 2% | 0/3 died at 2 × 40 mg/kg
